What was measured:
[1] = target: T1, LTD4 receptor (Cavia porcellus, UniProt Q2NNR5); test: receptor binding: competition with [^3 H]LTD4 on guinea-pig lung membranes; conditions: negative logarithm of molar concentration inhibiting binding by 50%, read-out: pIC50 value ([^3 H]LTD4 binding) (converted)
T1 construct: from tissue; host or cells: guinea-pig lung membranes
T1 sequence (Q2NNR5 1-340): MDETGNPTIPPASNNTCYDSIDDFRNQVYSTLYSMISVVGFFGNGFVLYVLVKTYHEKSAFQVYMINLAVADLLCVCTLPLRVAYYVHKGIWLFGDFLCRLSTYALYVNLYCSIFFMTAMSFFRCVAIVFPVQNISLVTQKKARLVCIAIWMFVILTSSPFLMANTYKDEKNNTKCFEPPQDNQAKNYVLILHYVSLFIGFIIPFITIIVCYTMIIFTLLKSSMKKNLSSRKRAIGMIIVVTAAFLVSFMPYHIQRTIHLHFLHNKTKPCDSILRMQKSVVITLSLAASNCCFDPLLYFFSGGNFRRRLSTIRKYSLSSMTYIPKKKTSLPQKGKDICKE
From the text: It is of importance to investigate the receptor binding properties of leukotriene antagonists in relation to their pKB values (13), i.e. to correlate antagonist receptor blocking with inhibition of smooth muscle contraction. Receptor binding studies may be performed with guinea-pig lung membranes in a direct competition assay between a leukotriene antagonist and [^3 H]LTD4 for binding to the LTD4 receptor (10,13).

[2] = target: T2, guinea-pig tracheal strips (LTD4 concentration-response) (Cavia porcellus, UniProt Q2NNR5); test: LTD4 antagonism in guinea-pig tracheal strips (pKB); conditions: for Kb: Pharmacological Data table; for pKB value: guinea-pig tracheal strips, negative logarithm of the antagonist dissociation constant
T2 construct: from tissue; host or cells: guinea-pig tracheal strips
T2 sequence (Q2NNR5 1-340): T1 sequence (Q2NNR5 1-340)
From the text: Leukotrine antagonists may be further characterized using guinea-pig tracheal strips instead of ileum strips (10). In this relevant in vitro model of human airways (11) tracheal strips are suspended in a physiological buffer containing indomethacin. A concentration-response curve to LTD4 is generated in the presence and absence of the leukotriene antagonist. From these curves the potency of a leukotriene antagonist may be expressed as the pKB value, the negative logarithm of the antagonist dissociation constant. The pKB value is determined as -log ([antagonist]/(dose ratio -1)), where the dose ratio is defined as EC50 (pressence of antagonist)/EC50 (absence of antagonist) and EC50 refers to the concentration of LTD4 eliciting 50% of the maximum response to LTD4 (12).

[3] = tested on: cyclooxygenase; test: synthesis of cyclooxygenase products in A23187-stimulated rat peritoneal cells; assay type: cell-based; conditions: 10^-6 M
Procedure: (§1) The following method was used to assay 5-lipoxygenase activity in vitro: Rat peritoneal cells were harvested by i.p. injection of 10 ml Hank's balanced salt solution (GIBCO, cat. No. 4025, U.S.A.) containing 12.5 U/ml sodium heparin (Leo, Denmark) in anaesthesized rats. The resulting cell suspension, which mainly contained macrophages, was transferred to a test tube and washed twice by centrifugation (200 g, 10 min.) and resuspended in Hank's balanced salt solution containing 0.5% bovine serum albumin (BSA) (Sigma Chem. Co., U.S.A.). The cells from 9 rats were finally resuspended in Hank's balanced salt solution (with BSA) containing 5 μCi [1-^14 C]arachidonic acid (The Radiochemical Centre, Amersham, U.K.) and incubated for 90 minutes at 37° C. This caused labelling of cell membrane phospholipids as radioactive arachidonic acid was incorporated in the 2-position of the glycerol moiety. Excess arachidonic acid was then removed by washing the cells twice as described above. The cells were finally resuspended in the same solution (without BSA) at 10^7 cells/ml. 475 μl of the cell suspension was preincubated at 37° C. for 5 minutes with either 5 μl dimethylsulphoxide (DMSO) (control tube), or 5 μl of a drug solution in DMSO. Then 20 μl of a mixture of equal volumes of the calcium ionophore A23187, 10^-4 M in ethanol (Calbiochem, U.S.A.), and 0.4M CaCl2 in water was added. The final concentration of A23187 was thus 2×10^-6 M, and of Ca^++ 8 mM. After 5 minutes of incubation the tubes were transferred to an ice-bath and centrifuged for 10 minutes at 3,000 g (4° C.). An aliquot of the supernatant was counted by liquid scintillation spectrometry in order to calculate the total radioactive release induced by A23187 in presence of drugs. A decrease in radioactive release was taken as indication of phospholipase A2 inhibition. The supernatant was then extracted with ethyl acetate (2 ml), adjusted to pH 3 with 1N HCl and further extracted with 2 ml ethyl acetate. The combined extracts were evaporated to dryness in vacuo, the residue was redissolved in a small volume of methanol and applied by means of a Desaga Autospotter™ to a silica-gel coated thin-layer plate fitted with a polar concentrating zone (Merck Art. 11798, Darmstadt, F.R.G.). The plates were developed in the organic layer of the solvent mixture ethyl acetate/acetic acid/iso-octane/water (55:10:25:50). Radioactive spots were detected by autoradiography (AGFA-GEVAERT, Osray-RPI X-ray film, Belgium), and changes induced by drugs in the metabolic pattern of arachidonic acid were quantified by a laser densitometer (LKB, Ultroscan™ 2202, Bromma, Sweden) in combination with an integrating computer (SP 4100, Spectra-Physics, San Jose, Calif., U.S.A.).
(§2) These cells produced measurable amounts of radioactive 6-keto-prostaglandinF1α, thromboxane B2, prostaglandin D2, hydroxyheptadecatrienoic acid (HHT) (all cyclooxygenase products), 5-hydroxyeicosatetraenoic acid (5-HETE) and leukotriene B4 (both 5-lipoxygenase products).
(§3) At the same time, a decrease in synthesis of the cyclooxygenase products HHT, prostaglandin D2, thromboxane B2 and 6-keto-prostaglandin F1α was not observed. This pattern of drug activity is indicative of truly specific 5-lipoxygenase inhibition.

[4] = tested on: 5-lipoxygenase; test: 5-lipoxygenase activity in vitro (leukotriene B4 and 5-HETE production in A23187-stimulated rat peritoneal cells); assay type: cell-based; conditions: 10^-6 M
Procedure: as §1, §2, §3

[5] = Pharmacological Data, IC50 (test not stated); conditions: Pharmacological Data table

## O=C(O)COc1cccc(CNc2cccc(OCc3ccc4ccccc4n3)c2)c1 [Example 1, 3-(2'-Quinolylmethoxy)-N-(3"-carboxymethoxybenzyl)aniline]
[1]
  IC50: 50.1 nM
[2]
  Kb: 5.01 nM
  pKB value: 8.3

## O=C(O)c1ccccc1NCc1cccc(OCc2ccc3ccccc3n2)c1 [Example 2]
[3]
  decrease in synthesis of the cyclooxygenase products HHT, prostaglandin D2, thromboxane B2 and 6-keto-prostaglandin F1α: not observed
[4]
  decrease in the production of leukotriene B4 and 5-HETE: significant and specific decrease

## O=C(O)Cc1ccc(NCc2cccc(OCc3ccc4ccccc4n3)c2)cc1 [Example 8]
[3]
  decrease in synthesis of the cyclooxygenase products HHT, prostaglandin D2, thromboxane B2 and 6-keto-prostaglandin F1α: not observed
[4]
  decrease in the production of leukotriene B4 and 5-HETE: significant and specific decrease

## O=C(O)COc1ccccc1CNc1cccc(OCc2ccc3ccccc3n2)c1 [Example 9, 3-(2'-quinolylmethoxy)-N-(2"-carboxymethoxybenzyl)aniline]
[5]
  IC50: 16 nM
[1]
  IC50: 7.94 nM
[3]
  decrease in synthesis of the cyclooxygenase products HHT, prostaglandin D2, thromboxane B2 and 6-keto-prostaglandin F1α: not observed
[4]
  decrease in the production of leukotriene B4 and 5-HETE: significant and specific decrease
[2]
  Kb: 0.316 nM
  pKB value: 9.5

## O=C(O)COc1ccc(CNc2cccc(OCc3ccc4ccccc4n3)c2)cc1 [Example 10, 3-(2'-quinolylmethoxy)-N-(4"-carboxymethoxybenzyl)aniline]
[1]
  IC50: 31.6 nM
[2]
  Kb: 3.98 nM
  pKB value: 8.4

## O=C(O)CCOc1ccccc1CNc1cccc(OCc2ccc3ccccc3n2)c1 [Example 11]
[3]
  decrease in synthesis of the cyclooxygenase products HHT, prostaglandin D2, thromboxane B2 and 6-keto-prostaglandin F1α: not observed
[4]
  decrease in the production of leukotriene B4 and 5-HETE: significant and specific decrease

## CC(Oc1ccc(CNc2cccc(OCc3ccc4ccccc4n3)c2)cc1)C(=O)O (stereo not shown) [Example 12, 3-(2'-quinolylmethoxy)-N-(4"-(1-carboxyethoxy)benzyl)aniline]
[3]
  decrease in synthesis of the cyclooxygenase products HHT, prostaglandin D2, thromboxane B2 and 6-keto-prostaglandin F1α: not observed
[4]
  decrease in the production of leukotriene B4 and 5-HETE: significant and specific decrease

## CC(Oc1ccccc1CNc1ccc(OCc2ccc3ccccc3n2)cc1)C(=O)O (stereo not shown) [Example 13]
[3]
  decrease in synthesis of the cyclooxygenase products HHT, prostaglandin D2, thromboxane B2 and 6-keto-prostaglandin F1α: not observed
[4]
  decrease in the production of leukotriene B4 and 5-HETE: significant and specific decrease

## O=C(O)CCCOc1ccccc1CNc1cccc(OCc2ccc3ccccc3n2)c1 [Example 14, 3-(2'-quinolylmethoxy)-N-(2"-carboxy-(3-propyloxy)benzyl)aniline]
[3]
  decrease in synthesis of the cyclooxygenase products HHT, prostaglandin D2, thromboxane B2 and 6-keto-prostaglandin F1α: not observed
[4]
  decrease in the production of leukotriene B4 and 5-HETE: significant and specific decrease

## O=C(O)CCCOc1ccc(CNc2cccc(OCc3ccc4ccccc4n3)c2)cc1 [Example 16]
[3]
  decrease in synthesis of the cyclooxygenase products HHT, prostaglandin D2, thromboxane B2 and 6-keto-prostaglandin F1α: not observed
[4]
  decrease in the production of leukotriene B4 and 5-HETE: significant and specific decrease

## O=C(NO)c1ccc(CN(Cc2cccc(F)c2)c2cccc(OCc3ccc4ccccc4n3)c2)cc1 [Example 20, 3(2'-Quinolylmethoxy)-N-(3"-fluorobenzyl)-N-(4'"-hydroxaminocarbonylbenzyl)aniline]
[3]
  decrease in synthesis of the cyclooxygenase products HHT, prostaglandin D2, thromboxane B2 and 6-keto-prostaglandin F1α: not observed
[4]
  decrease in the production of leukotriene B4 and 5-HETE: significant and specific decrease

## O=C(NO)c1ccccc1Nc1cccc(OCc2ccc3ccccc3n2)c1 [Example 21, 3-(2'-Quinolylmethoxy)-N-(2"-hydroxaminocarbonylphenyl)-aniline]
[3]
  decrease in synthesis of the cyclooxygenase products HHT, prostaglandin D2, thromboxane B2 and 6-keto-prostaglandin F1α: not observed
[4]
  decrease in the production of leukotriene B4 and 5-HETE: significant and specific decrease

## O=C(O)COc1ccccc1CNc1ccc(OCc2ccc3ccccc3n2)cc1 [Example 22, 4-(2'-Quinolylmethoxy)-N-(2"-carboxymethoxybenzyl)-aniline]
[3]
  decrease in synthesis of the cyclooxygenase products HHT, prostaglandin D2, thromboxane B2 and 6-keto-prostaglandin F1α: not observed
[4]
  decrease in the production of leukotriene B4 and 5-HETE: significant and specific decrease

## c1ccc(CNc2ccc(OCc3ccc4ccccc4n3)cc2)cc1 [example 38]
[5]
  IC50: 900 nM

## c1ccc(CNc2cccc(OCc3ccc4ccccc4n3)c2)cc1 [example 39, reference compound]
[5]
  IC50: 30 nM
[2]
  Kb: 126 nM

## c1ccc(CNc2ccccc2OCc2ccc3ccccc3n2)cc1 [example 67]
[5]
  IC50: > 10000 nM

## O=C(O)CN(Cc1ccccc1)c1cccc(OCc2ccc3ccccc3n2)c1 [ref. I]
[5]
  IC50: 40 nM
